From ChEMBL document CHEMBL4507292 (2021)

What was measured:
[1] = biological target: Serine/threonine-protein kinase TAO3 (Homo sapiens) (UniProt Q9H2K8); conditions: Compound concentration 1000.0 nM
[2] = biological target: Discoidin domain-containing receptor 2 (Homo sapiens) (UniProt Q16832); conditions: Compound concentration 1000.0 nM
[3] = biological target: SRSF protein kinase 3 (Homo sapiens) (UniProt Q9UPE1); conditions: Compound concentration 1000.0 nM
[4] = biological target: Serine/threonine-protein kinase PLK1 (Homo sapiens) (UniProt P53350); conditions: Compound concentration 1000.0 nM
[5] = biological target: Rho-associated protein kinase 1 (Homo sapiens) (UniProt Q13464); conditions: Compound concentration 1000.0 nM
[6] = biological target: Homeodomain-interacting protein kinase 3 (Homo sapiens) (UniProt Q9H422); conditions: Compound concentration 1000.0 nM
[7] = biological target: Dual specificity protein kinase CLK3 (Homo sapiens) (UniProt P49761); conditions: Compound concentration 1000.0 nM
[8] = biological target: Dual specificity mitogen-activated protein kinase kinase 7 (Homo sapiens) (UniProt O14733); conditions: Compound concentration 1000.0 nM
[9] = biological target: Sodium-dependent serotonin transporter (Homo sapiens, UniProt P31645); conditions: Compound concentration 10.0 uM
[10] = biological target: Protein-tyrosine kinase 2-beta (Homo sapiens) (UniProt Q14289); conditions: Compound concentration 1000.0 nM
[11] = biological target: Tyrosine-protein kinase Tec (Homo sapiens) (UniProt P42680); conditions: Compound concentration 1000.0 nM
[12] = biological target: Activin receptor type-2A (Homo sapiens) (UniProt P27037); conditions: Compound concentration 1000.0 nM
[13] = biological target: Aurora kinase B (Homo sapiens) (UniProt Q96GD4); conditions: Compound concentration 1000.0 nM
[14] = biological target: G protein-coupled receptor kinase 4 (Homo sapiens) (UniProt P32298); conditions: Compound concentration 1000.0 nM
[15] = biological target: 5-hydroxytryptamine receptor 6 (Homo sapiens) (UniProt P50406); conditions: Compound concentration 10.0 uM
[16] = biological target: Non-receptor tyrosine-protein kinase TYK2 (Homo sapiens) (UniProt P29597); conditions: Compound concentration 1000.0 nM
[17] = biological target: Ribosomal protein S6 kinase alpha-4 (Homo sapiens) (UniProt O75676); conditions: Compound concentration 1000.0 nM
[18] = biological target: Activin receptor type-1-like (Homo sapiens) (UniProt P37023); conditions: Compound concentration 1000.0 nM
[19] = biological target: MAP kinase-interacting serine/threonine-protein kinase 2 (Homo sapiens) (UniProt Q9HBH9); conditions: Compound concentration 1000.0 nM
D(1A) dopamine receptor = D(1A) dopamine receptor (Homo sapiens, UniProt P21728); conditions: Compound concentration 10.0 uM
[20] = biological target: Ephrin type-A receptor 1 (Homo sapiens) (UniProt P21709); conditions: Compound concentration 1000.0 nM
[21] = biological target: Muscarinic acetylcholine receptor M4 (Homo sapiens) (UniProt P08173); conditions: Compound concentration 10.0 uM
[22] = biological target: Dual specificity mitogen-activated protein kinase kinase 6 (Homo sapiens) (UniProt P52564); conditions: Compound concentration 1000.0 nM
[23] = biological target: Mitogen-activated protein kinase 3 (Homo sapiens) (UniProt P27361); conditions: Compound concentration 1000.0 nM
[24] = biological target: Cyclin-dependent kinase 14 (Homo sapiens) (UniProt O94921); conditions: Compound concentration 1000.0 nM
[25] = biological target: Sigma non-opioid intracellular receptor 1 (Homo sapiens, UniProt Q99720); assay: GPCRScan assay: inhibition of Sigma 1; set-up: radioligand conc. used [nm] 4.0 – 5.0, parental cells HEKT
[26] = biological target: Tyrosine-protein kinase JAK1 (Homo sapiens) (UniProt P23458); conditions: Compound concentration 1000.0 nM
[27] = biological target: 5-hydroxytryptamine receptor 1E (Homo sapiens) (UniProt P28566); conditions: Compound concentration 10.0 uM
[28] = biological target: Cyclin-G-associated kinase (Homo sapiens) (UniProt O14976); conditions: Compound concentration 1000.0 nM
[29] = biological target: STE20/SPS1-related proline-alanine-rich protein kinase (Homo sapiens) (UniProt Q9UEW8); conditions: Compound concentration 1000.0 nM
[30] = biological target: Serine/threonine-protein kinase ICK (Homo sapiens) (UniProt Q9UPZ9); conditions: Compound concentration 1000.0 nM
[31] = biological target: Epidermal growth factor receptor (Homo sapiens, UniProt P00533); conditions: Compound concentration 1000.0 nM
[32] = biological target: Receptor tyrosine-protein kinase erbB-4 (Homo sapiens) (UniProt Q15303); conditions: Compound concentration 1000.0 nM
[33] = biological target: Macrophage colony-stimulating factor 1 receptor (Homo sapiens) (UniProt P07333); conditions: Compound concentration 1000.0 nM
[34] = biological target: Serine/threonine-protein kinase Nek10 (Homo sapiens) (UniProt Q6ZWH5); conditions: Compound concentration 1000.0 nM
[35] = biological target: Mitogen-activated protein kinase 15 (Homo sapiens) (UniProt Q8TD08); conditions: Compound concentration 1000.0 nM
[36] = system: Proto-oncogene tyrosine-protein kinase receptor Ret (Homo sapiens), P07949 [V804L]; conditions: Compound concentration 1000.0 nM
[37] = biological target: Dual specificity tyrosine-phosphorylation-regulated kinase 2 (Homo sapiens) (UniProt Q92630); conditions: Compound concentration 1000.0 nM
[38] = biological target: Cyclin-dependent kinase-like 2 (Homo sapiens) (UniProt Q92772); conditions: Compound concentration 1000.0 nM
[39] = biological target: Serine/threonine-protein kinase Nek2 (Homo sapiens) (UniProt P51955); conditions: Compound concentration 1000.0 nM
[40] = biological target: Proto-oncogene tyrosine-protein kinase receptor Ret (Homo sapiens) (UniProt P07949); conditions: Compound concentration 1000.0 nM
[41] = biological target: Tyrosine-protein kinase CSK (Homo sapiens) (UniProt P41240); conditions: Compound concentration 1000.0 nM
[42] = biological target: Tyrosine-protein kinase Fyn (Homo sapiens) (UniProt P06241); conditions: Compound concentration 1000.0 nM
[43] = biological target: Inhibitor of nuclear factor kappa-B kinase subunit beta (Homo sapiens) (UniProt O14920); conditions: Compound concentration 1000.0 nM
[44] = biological target: Serine/threonine-protein kinase 32A (Homo sapiens) (UniProt Q8WU08); conditions: Compound concentration 1000.0 nM
[45] = biological target: Muscle, skeletal receptor tyrosine-protein kinase (Homo sapiens) (UniProt O15146); conditions: Compound concentration 1000.0 nM

Chain of Non-receptor tyrosine-protein kinase TYK2 (Homo sapiens) (P29597 whole entry): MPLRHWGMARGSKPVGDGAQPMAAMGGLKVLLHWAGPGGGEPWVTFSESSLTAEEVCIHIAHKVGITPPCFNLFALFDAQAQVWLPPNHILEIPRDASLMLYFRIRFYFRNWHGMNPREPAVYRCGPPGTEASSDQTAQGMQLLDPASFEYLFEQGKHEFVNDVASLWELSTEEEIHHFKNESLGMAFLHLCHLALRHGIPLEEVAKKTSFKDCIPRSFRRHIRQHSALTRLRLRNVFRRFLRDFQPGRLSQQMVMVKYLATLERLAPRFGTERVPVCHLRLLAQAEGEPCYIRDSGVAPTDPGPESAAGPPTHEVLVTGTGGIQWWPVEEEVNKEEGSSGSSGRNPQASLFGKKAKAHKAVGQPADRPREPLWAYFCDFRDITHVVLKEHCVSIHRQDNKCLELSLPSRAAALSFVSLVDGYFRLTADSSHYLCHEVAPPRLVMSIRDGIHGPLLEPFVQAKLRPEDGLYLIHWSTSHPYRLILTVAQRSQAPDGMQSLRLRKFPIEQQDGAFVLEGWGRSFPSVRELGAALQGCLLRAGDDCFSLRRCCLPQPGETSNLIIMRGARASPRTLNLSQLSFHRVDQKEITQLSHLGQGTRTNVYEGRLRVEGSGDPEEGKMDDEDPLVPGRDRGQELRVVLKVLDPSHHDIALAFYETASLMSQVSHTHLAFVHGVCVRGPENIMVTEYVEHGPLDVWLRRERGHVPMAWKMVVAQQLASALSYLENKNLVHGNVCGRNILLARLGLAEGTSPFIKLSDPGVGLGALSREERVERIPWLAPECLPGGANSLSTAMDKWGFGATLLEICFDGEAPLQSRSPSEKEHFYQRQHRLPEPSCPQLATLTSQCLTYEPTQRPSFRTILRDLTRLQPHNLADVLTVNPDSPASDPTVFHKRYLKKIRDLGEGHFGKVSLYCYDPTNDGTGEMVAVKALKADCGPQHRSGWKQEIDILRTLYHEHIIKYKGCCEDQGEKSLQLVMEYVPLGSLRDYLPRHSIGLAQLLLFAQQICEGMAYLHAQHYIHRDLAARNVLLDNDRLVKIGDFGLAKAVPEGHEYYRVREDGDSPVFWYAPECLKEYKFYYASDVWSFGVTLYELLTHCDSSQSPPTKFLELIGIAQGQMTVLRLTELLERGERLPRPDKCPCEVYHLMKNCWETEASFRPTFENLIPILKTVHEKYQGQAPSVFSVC
Chain of Cyclin-G-associated kinase (Homo sapiens) (O14976 whole entry): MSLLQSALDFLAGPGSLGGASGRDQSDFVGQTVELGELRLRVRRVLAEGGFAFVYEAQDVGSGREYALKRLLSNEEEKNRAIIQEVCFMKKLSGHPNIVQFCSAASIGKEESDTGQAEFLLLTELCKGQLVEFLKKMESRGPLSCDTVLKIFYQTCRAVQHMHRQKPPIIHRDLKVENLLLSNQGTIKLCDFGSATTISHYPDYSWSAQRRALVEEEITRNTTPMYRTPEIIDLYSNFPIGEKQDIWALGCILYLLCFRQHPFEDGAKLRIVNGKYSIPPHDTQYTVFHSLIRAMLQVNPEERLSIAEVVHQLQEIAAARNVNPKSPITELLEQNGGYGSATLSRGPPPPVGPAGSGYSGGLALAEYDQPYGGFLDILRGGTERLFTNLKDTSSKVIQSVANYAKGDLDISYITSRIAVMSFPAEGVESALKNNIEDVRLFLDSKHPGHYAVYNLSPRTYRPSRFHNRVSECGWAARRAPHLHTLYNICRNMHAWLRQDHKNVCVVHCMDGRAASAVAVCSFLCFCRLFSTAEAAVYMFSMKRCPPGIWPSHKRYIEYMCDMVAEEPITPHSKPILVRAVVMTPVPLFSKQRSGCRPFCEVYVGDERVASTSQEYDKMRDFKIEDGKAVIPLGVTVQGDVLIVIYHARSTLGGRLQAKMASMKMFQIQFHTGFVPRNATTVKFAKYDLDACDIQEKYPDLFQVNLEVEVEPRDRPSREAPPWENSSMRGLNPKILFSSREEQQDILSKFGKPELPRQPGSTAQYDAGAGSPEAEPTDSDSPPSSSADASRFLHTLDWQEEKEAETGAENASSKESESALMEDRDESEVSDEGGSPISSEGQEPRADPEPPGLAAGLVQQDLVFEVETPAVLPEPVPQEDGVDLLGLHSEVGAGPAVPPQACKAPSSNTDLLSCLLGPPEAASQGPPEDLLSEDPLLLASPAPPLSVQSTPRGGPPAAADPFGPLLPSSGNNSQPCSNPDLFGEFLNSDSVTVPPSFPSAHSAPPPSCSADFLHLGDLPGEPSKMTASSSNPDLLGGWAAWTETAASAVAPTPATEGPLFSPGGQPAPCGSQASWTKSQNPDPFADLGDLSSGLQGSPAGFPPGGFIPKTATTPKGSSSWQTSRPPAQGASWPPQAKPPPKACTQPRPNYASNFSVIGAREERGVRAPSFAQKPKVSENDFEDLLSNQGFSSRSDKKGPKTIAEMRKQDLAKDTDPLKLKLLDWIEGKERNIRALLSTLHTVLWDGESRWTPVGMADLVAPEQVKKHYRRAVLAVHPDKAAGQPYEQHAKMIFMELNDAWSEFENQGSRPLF
Chain of D(1A) dopamine receptor (P21728 whole entry): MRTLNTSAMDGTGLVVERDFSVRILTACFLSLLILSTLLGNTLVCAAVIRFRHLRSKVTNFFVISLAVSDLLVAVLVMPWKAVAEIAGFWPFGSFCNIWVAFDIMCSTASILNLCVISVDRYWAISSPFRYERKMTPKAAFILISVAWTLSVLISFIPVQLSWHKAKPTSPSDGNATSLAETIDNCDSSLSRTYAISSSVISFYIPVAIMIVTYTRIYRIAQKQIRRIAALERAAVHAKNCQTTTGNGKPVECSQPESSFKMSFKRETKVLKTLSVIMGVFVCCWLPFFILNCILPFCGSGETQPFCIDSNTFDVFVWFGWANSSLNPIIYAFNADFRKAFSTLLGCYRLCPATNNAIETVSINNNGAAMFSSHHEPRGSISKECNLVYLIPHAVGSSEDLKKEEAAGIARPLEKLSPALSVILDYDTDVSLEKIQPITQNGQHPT
Chain of Dual specificity mitogen-activated protein kinase kinase 7 (Homo sapiens) (O14733 whole entry): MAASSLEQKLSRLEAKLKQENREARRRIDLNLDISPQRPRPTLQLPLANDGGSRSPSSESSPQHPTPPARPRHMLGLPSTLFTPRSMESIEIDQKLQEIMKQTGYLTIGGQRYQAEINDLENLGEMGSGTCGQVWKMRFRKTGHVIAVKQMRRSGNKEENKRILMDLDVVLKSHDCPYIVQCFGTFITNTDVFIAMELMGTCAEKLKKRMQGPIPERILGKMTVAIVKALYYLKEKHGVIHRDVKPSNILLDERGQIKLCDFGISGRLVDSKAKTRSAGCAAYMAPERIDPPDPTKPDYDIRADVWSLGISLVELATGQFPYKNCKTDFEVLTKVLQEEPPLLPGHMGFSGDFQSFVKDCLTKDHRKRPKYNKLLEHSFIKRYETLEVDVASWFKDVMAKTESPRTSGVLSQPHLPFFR
Chain of Homeodomain-interacting protein kinase 3 (Homo sapiens) (Q9H422 whole entry, looked up): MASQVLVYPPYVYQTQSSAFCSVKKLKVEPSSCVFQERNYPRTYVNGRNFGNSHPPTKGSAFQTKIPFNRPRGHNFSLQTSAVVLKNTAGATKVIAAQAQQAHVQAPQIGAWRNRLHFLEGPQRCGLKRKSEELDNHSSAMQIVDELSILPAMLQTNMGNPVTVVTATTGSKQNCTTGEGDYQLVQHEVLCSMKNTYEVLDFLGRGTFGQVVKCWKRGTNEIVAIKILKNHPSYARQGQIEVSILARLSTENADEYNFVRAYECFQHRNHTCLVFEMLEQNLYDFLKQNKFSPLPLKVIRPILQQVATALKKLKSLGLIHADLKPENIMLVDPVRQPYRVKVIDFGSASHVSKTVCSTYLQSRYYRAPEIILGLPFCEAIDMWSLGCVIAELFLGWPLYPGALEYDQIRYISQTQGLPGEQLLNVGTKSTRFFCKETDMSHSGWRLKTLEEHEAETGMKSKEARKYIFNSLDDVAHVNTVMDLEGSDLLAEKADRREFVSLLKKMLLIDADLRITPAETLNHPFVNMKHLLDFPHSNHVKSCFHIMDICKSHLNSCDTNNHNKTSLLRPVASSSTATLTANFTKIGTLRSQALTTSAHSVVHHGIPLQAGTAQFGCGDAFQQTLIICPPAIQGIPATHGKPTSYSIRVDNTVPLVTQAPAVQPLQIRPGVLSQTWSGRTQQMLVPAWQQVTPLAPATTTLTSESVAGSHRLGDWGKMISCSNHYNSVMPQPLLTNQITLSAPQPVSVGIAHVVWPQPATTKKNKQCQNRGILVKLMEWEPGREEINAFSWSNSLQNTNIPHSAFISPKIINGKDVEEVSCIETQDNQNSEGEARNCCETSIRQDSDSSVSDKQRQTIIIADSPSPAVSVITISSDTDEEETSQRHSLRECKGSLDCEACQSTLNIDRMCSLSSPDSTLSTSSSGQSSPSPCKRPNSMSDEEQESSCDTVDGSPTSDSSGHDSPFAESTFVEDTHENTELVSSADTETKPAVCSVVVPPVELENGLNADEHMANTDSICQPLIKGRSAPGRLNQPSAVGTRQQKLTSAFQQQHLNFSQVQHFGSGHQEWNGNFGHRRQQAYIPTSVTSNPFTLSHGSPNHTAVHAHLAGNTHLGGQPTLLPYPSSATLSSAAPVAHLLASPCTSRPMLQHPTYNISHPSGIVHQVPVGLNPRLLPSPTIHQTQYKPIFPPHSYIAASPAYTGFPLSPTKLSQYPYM
Chain of Aurora kinase B (Homo sapiens) (Q96GD4 whole entry): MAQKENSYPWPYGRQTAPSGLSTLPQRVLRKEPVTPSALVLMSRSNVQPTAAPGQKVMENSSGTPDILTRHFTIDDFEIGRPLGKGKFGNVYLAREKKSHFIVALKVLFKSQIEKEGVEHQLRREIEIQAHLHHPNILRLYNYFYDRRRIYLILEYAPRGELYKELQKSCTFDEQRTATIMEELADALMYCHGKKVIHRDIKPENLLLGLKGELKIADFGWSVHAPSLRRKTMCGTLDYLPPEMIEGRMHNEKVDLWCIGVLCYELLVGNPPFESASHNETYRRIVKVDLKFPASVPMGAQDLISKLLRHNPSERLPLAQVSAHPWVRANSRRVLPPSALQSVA

Structure (SMILES): Cc1c(C(=O)O)cc(-c2ccc(C3CCNCC3)cc2)c2ccc(-c3ccc(C(F)(F)F)cc3)cc12 [PPTN-NC]
- residual activity [1]: 100%
- residual activity [2]: 100%
- residual activity [3]: 100%
- residual activity [4]: 94%
- residual activity [5]: 100%
- residual activity [6]: 100%
- residual activity [7]: 100%
- residual activity [8]: 100%
- inhibition [9]: -7.91%
- residual activity [10]: 100%
- residual activity [11]: 100%
- residual activity [12]: 87%
- residual activity [13]: 100%
- residual activity [14]: 100%
- inhibition [15]: 13.5%
- residual activity [16]: 100%
- residual activity [17]: 88%
- residual activity [18]: 100%
- residual activity [19]: 100%
- inhibition (D(1A) dopamine receptor): 61.4%
- residual activity [20]: 83%
- inhibition [21]: -5.54%
- residual activity [22]: 100%
- residual activity [23]: 100%
- residual activity [24]: 100%
- Ki [25]: 1170 nM
- residual activity [26]: 100%
- inhibition [27]: 3.48%
- residual activity [28]: 100%
- residual activity [29]: 100%
- residual activity [30]: 100%
- residual activity [31]: 100%
- residual activity [32]: 100%
- residual activity [33]: 100%
- residual activity [34]: 100%
- residual activity [35]: 100%
- residual activity [36]: 100%
- residual activity [37]: 100%
- residual activity [38]: 100%
- residual activity [39]: 100%
- residual activity [40]: 99%
- residual activity [41]: 100%
- residual activity [42]: 100%
- residual activity [43]: 100%
- residual activity [44]: 89%
- residual activity [45]: 100%

Structure (SMILES): O=C(O)c1cc(-c2ccc(C3CCNCC3)cc2)c2ccc(-c3ccc(C(F)(F)F)cc3)cc2c1 [PPTN]
- residual activity [1]: 100%
- residual activity [2]: 100%
- residual activity [3]: 82%
- residual activity [4]: 88%
- residual activity [5]: 100%
- residual activity [6]: 100%
- residual activity [7]: 100%
- residual activity [8]: 100%
- inhibition [9]: -2.04%
- residual activity [10]: 100%
- residual activity [11]: 100%
- residual activity [12]: 100%
- residual activity [13]: 100%
- residual activity [14]: 72%
- inhibition [15]: 5.62%
- residual activity [16]: 100%
- residual activity [17]: 100%
- residual activity [18]: 100%
- residual activity [19]: 100%
- inhibition (D(1A) dopamine receptor): 71.4%
- residual activity [20]: 100%
- inhibition [21]: -4.96%
- residual activity [22]: 100%
- residual activity [23]: 100%
- residual activity [24]: 100%
- Ki [25]: 1180 nM
- residual activity [26]: 100%
- inhibition [27]: 13.4%
- residual activity [28]: 100%
- residual activity [29]: 100%
- residual activity [30]: 100%
- residual activity [31]: 100%
- residual activity [32]: 100%
- residual activity [33]: 100%
- residual activity [34]: 100%
- residual activity [35]: 100%
- residual activity [36]: 88%
- residual activity [37]: 100%
- residual activity [38]: 100%
- residual activity [39]: 100%
- residual activity [40]: 90%
- residual activity [41]: 100%
- residual activity [42]: 100%
- residual activity [43]: 100%
- residual activity [44]: 100%
- residual activity [45]: 90%
